Common to all, as to assay type: cell-based
In one data set the test system is AT1 cells. Briefly: Nanocomposite cellular uptake mechanism study (endocytosis inhibitors, temperature block). The note with it: 5 μM, 2 hours pretreatment, vs untreated cells. As for the experimental part: To determine the NC/NP uptake mechanism used by cells, an endocytosis-inhibition examination was performed. Alveolar Type 1 cells were seeded at confluency in 48-well plates and attached overnight at 37° C. in an incubator with 5% CO2. Rhodamine B-loaded nanocomposites were prepared using a similar procedure done for other studies. After 24 hours of seeding, the AT1 cell culture medium was replaced by fresh 1% serum media containing 5 μM of Amiloride, 5 μM of methyl-β-cyclodextran, 5 μg/mL of Filipin III, 5 μM of Cytochalasin-D, 5 μM of Imipramine, 80 μM Dynasore, or 5 mM of Deoxy-glucose (Sigma Aldrich & Cayman Chemical). After 2 hours, fresh complete media with Rho B-labeled nanocomposites at a concentration of 0.5 mg/mL was added. […] Images were acquired using a fluorescent microscope and processed for NP uptake in random areas using 10 images from each inhibitor group with the ImageJ software.
In a similar fashion, to check if the nanocomposites undergo an energy-dependent uptake, temperature block was studied in AT1 cells by preincubating cells at 4° C. for 30 minutes, followed by treatment with fluorescent nanocomposites for 90 minutes at 4° C. Later, fluorescent images were acquired, and the cell lysates were analyzed for quantitative nanocomposite uptake.

A further data set concerns MRSA. Briefly: microbe, parasite or virus in culture. The following applies: Staphylococcus aureus, 24 h.
Data set [1] has as its system primary alveolar type I epithelial cells (AT1). Briefly: Cytocompatibility (MTS) in AT1 cells. The note with it: 72 hours, 0.0625-1 mg/mL, vs untreated control. The protocol: Primary lung epithelial cells, RAW macrophages, and HUVECs were used to assess toxicity of the nanocomposites. Nanocomposites were prepared as described in for AT1 cells, in which 20,000 cells/well of primary alveolar type I epithelial cells (AT1) were seeded in 48-well plates. After the overnight culture, various groups of particles including blank PLGA NPs, nanofibers only, and nanocomposites (nanofiber coated-PLGA nanoparticles) were given to the cells in triplicate at various concentrations ranging from 0.0625-1 mg/mL. The nanofiber concentration chosen was equivalent to the peptide amount conjugated onto the nanoparticles. After 72 hours, the cells were washed 3 times with PBS, and MTS reagent was applied to the cells to assess the cell viability following the company's instructions.
In this study, primary lung epithelial cells and kidney epithelial cells (Vero E6) were used to assess toxicity from NPs. NF-coated NPs were prepared as described above, in which 4000 cells/well of primary alveolar type I epithelial cells (AT1 cells) and Vero E6 cells were seeded in 96-well plates. After overnight culturing, RDV NCs were added to the cells in triplicate at various concentrations ranging from 0 to 1 mg/mL. An NF to NP ratio of 0.25 was used for the study. […]

In brackets after ≈: the same amount, converted by molar mass.

Regarding `C=C1[C@@H](C)[C@H]2[C@H](Cc3ccccc3)NC(=O)[C@]23[C@H](OC(C)=O)/C=C/[C@@](C)(O)C(=O)[C@@H](C)C/C=C/[C@H]3[C@@H]1O` [cytochalasin-D], the “effect of endocytosis inhibitor on cellular uptake of NCs” value in the data set on AT1 cells was “significant reduction in cellular uptake”.
As for `CN[C@H](CC(C)C)C(=O)N[C@H]1C(=O)N[C@@H](CC(N)=O)C(=O)N[C@H]2C(=O)N[C@H]3C(=O)N[C@H](C(=O)N[C@H](C(=O)O)c4cc(O)cc(O)c4-c4cc3ccc4O)[C@H](O)c3ccc(c(Cl)c3)Oc3cc2cc(c3O[C@@H]2O[C@H](CO)[C@@H](O)[C@H](O)[C@H]2O[C@H]2C[C@](C)(N)[C@H](O)[C@H](C)O2)Oc2ccc(cc2Cl)[C@H]1O` [free vancomycin, vancomycin], the MIC with MRSA came to 2 µg/mL (≈ 1.38 µM).
Turning to “Ac-KKKKKKKKKKQWQWQWQWQWQWEEE-NH2 [NFs, K10(QW)6E3]”, in data set [1], the “cytocompatibility (cell viability, MTS)” value was “significant toxicity with concentrations ranging from 0.25-1 mg/mL”.

The record behind these values is patent publication US20260102503A1, “NANOCOMPOSITES FOR ENHANCED CELLULAR PAYLOAD DELIVERY” (priority 2022, published 2026).
